Source: patent publication US11053201B2, “Crystalline forms” (SYNGENTA PARTICIPATIONS AG, priority 2018, dated 2021)

Legend:
[1] = temperature cycling test of FS200 flowable concentrate for seed treatment formulations, analysed under a microscope (40×) for crystal growth; assay type: physicochemical; conditions: for crystal growth: FS formulation
Protocol: As mentioned previously, it is crucial for the successful application of an agrochemical and/or pharmaceutical formulation that the crystalline form is stable in the particular formulation environment. Flowable concentrates for seed treatment (FS) formulations were prepared for both Form A and Form B. The only difference between the two formulations was the polymorphic form used, all of the other components were identical. The formulations were analyzed under a microscope (40×) for possible crystal growth which can have detrimental consequences such as thickening and potentially solidification of the formulation which can in turn lead to blockages in application equipment, e.g. in seed coating equipment or in spray nozzles in agricultural application machinery. Pictures were taken of the formulations at (i) start (FIGS. 13a and 14a), (ii) immediately after the temperature cycling test (FIGS. 13b and 14b) and (iii) two days at room temperature (RT) after the temperature cycling test (FIGS. 13c and 14c). The pictures are shown for the formulation comprising Form A in FIGS. 13a, 13b and 13c and the pictures for the formulations comprising Form B in FIGS. 14a, 14b and 14c. […] The recipe used is given in Table 8: The above formulations were tested for stability in a temperature cycling test as shown in FIG. 12. The formulations were then analyzed under the microscope (40×) to check for possible stability issues, in particular crystal growth and pictures were taken.

[2] = chemical stability of the polymorphic forms in the formulations tested; conditions: in the FS formulations tested
[3] = at start, before the temperature cycling test, microscope 40× (FIGS. 13a, 14a)
[4] = immediately after the temperature cycling test, microscope 40× (FIGS. 13b, 14b)
[5] = two days at room temperature after the temperature cycling test, microscope 40× (FIGS. 13c, 14c)

Row | crystal growth [1, 3] | crystal growth [1, 4] | crystal growth [1, 5] | resistance to crystal growth ([1]; when exposed to typical storage conditions) | chemical stability (compound degradation) [2] | SMILES
1 | did not exhibit any crystal growth | no such crystal growth | no such crystal growth | surprisingly resistant to crystal growth | no compound degradation was observed | O=C(N[C@H]1CC[C@H]1c1ccc(Cl)cc1Cl)c1cccnc1C(F)(F)F [Form B, (1S,2S) N-[2-(2,4-dichlorophenyl)cyclobutyl]-2-(trifluoromethyl)pyridine-3-carboxamide]
2 | did not exhibit any crystal growth | clear crystal growth | even further crystal growth |  |  | O=C(N[C@H]1CC[C@H]1c1ccc(Cl)cc1Cl)c1cccnc1C(F)(F)F [Form A, N-[(1S,2S)-2-(2,4-dichlorophenyl)cyclobutyl]-2-(trifluoromethyl) pyridine-3-carboxamide]
